# Laboratory results taken from patent publication US20240390338A1, “METHODS FOR TREATING NEUROGENERATIVE DISEASES” (PTC THERAPEUTICS, INC., priority 2021, published 2024).
# System: MAPT 3R mRNA
# Experiment: RT-qPCR Assay to Quantify MAPT 3R mRNA in Cells
# Type: cell-based
# Parameters: key to EC2X: An EC2X value ≥3000 nM is indicated by “inactive.”; An EC2X value between >1500 nM and ≤3000 nM is indicated by one star (*); An EC2X value between >1000 nM and ≤1500 nM is indicated by two stars (**); An EC2X value between >500 nM and ≤1000 nM is indicated by three stars (***); An EC2X value between >50 nM and ≤500 nM is indicated by four stars (****); An EC2X value ≤50 nM is indicated by five stars (*****)
# Conditions: cells incubated with compound 24 h; 7-point concentration curve; MAPT minigene 3R RT-qPCR with GAPDH assay; EC2X interpolated from dose response curve
# Procedure: RT-qPCR Assay to Quantify MAPT 3R mRNA in Cells
# Test compounds were serially diluted 3.16-fold in 100% DMSO to generate a 7-point concentration curve. Aliquots of 0.5 μL of diluted compounds were transferred to a 96-well flat bottom plate by a liquid handler. An aliquot of 0.5 μL DMSO was also transferred to separate wells and used as controls. Duplicate samples were set up for each compound concentration and for the DMSO control.
# Cells were thawed and incubated in cell culture media (DMEM, 10% FBS, and 1% antibiotic cocktail) for 72 h. Cells were trypsinized, counted, and re-suspended to a concentration of 200,000 cells/mL in cell culture media. A 100 μL aliquot of the cell suspensions were plated at 20,000 cells per well in the compound containing 96 well microtiter plate and incubated for in a cell culture incubator (37° C., 5% CO2, 100% relative humidity).
# After 24 h, media was aspirated from the cells and 20 μL of the RCL2 lysis buffer (10 mM Tris-HCL pH 7.4, 150 mM NaCl, 0.33% IGEPAL® CA-630) was added to each well and incubated at RT for 1 min. Chilled nuclease free water (140 μL per well) was added and the plates were immediately transferred on ice. After 1 min on ice, plates were frozen at −80° C. overnight.
# Preparation of RT-qPCR Reaction Mixture:
# An aliquot of 4 μL/well of the cell lysates was transferred using the liquid handler to the Armadillo 384-Well PCR plate containing 6 μL/well of the RT-qPCR reaction mixture that was prepared as detailed above. The plates were then sealed with MicroAmp™ Optical Adhesive Film followed by spinning down for 1 min and placed in the CFX384 thermocycler (BioRad).
# The RT-qPCR was carried out at the following temperatures for the indicated time: • Step 1: 48° C. (30 min) • Step 2: 95° C. (10 min) • Step 3: 95° C. (15 sec) • Step 4: 60° C. (1 min); then, repeated Steps 3 and 4 for a total of 40 cycles.
# The percent exon 4 skipping was calculated for each dose of compound treatment using Equations 1 and 2.
# Data were fit to a dose response curve and the EC2X was interpolated using XLfit® statistical and curve fitting package.
# An EC2X value between >1000 nM and ≤1500 nM is indicated by two stars (**). An EC2X value between >500 nM and ≤1000 nM is indicated by three stars (***). An EC2X value between >50 nM and ≤500 nM is indicated by four stars (****). An EC2X value ≤50 nM is indicated by five stars (*****).
SMILES,EC (2-fold increase) [µM],EC2X
"Cc1c(C[C@@H](N)C(=O)O)sc2c(NCc3ccco3)cc(Cl)nc12 [Cpd 115, 3-(5-chloro-7-{[(furan-2-yl)methyl]amino}-3-methylthieno[3,2-b]pyridin-2-yl)-D-alanine]",≤ 0.05,
"CSC[C@H](N)Cc1sc2c(NCc3ccco3)cc(Cl)nc2c1C [Cpd 104, 2-[(2R)-2-amino-3-(methylsulfanyl)propyl]-5-chloro-N-[(furan-2-yl)methyl]-3-methylthieno[3,2-b]pyridin-7-amine]",≤ 0.05,
"CS(=O)(=O)C[C@H](N)Cc1sc2c(NCc3ccco3)cc(Cl)nc2c1Br [Cpd 117, 2-[(2R)-2-amino-3-(methanesulfonyl)propyl]-3-bromo-5-chloro-N-[(furan-2-yl)methyl]thieno[3,2-b]pyridin-7-amine]",0.05 to 0.5,
"CC[C@H](N)Cc1sc2c(NCc3cccs3)cc(Cl)nc2c1Cl [Cpd 83, 2-[(2S)-2-aminobutyl]-3,5-dichloro-N-[(thiophen-2-yl)methyl]thieno[3,2-b]pyridin-7-amine]",≤ 0.05,
"Cc1c(C[C@@H](N)CCF)sc2c(NCc3cccs3)cc(Cl)nc12 [Cpd 92, 2-[(2S)-2-amino-4-fluorobutyl]-5-chloro-3-methyl-N-[(thiophen-2-yl)methyl]thieno[3,2-b]pyridin-7-amine]",0.05 to 0.5,
"C[C@H](F)[C@H](N)Cc1sc2c(NCc3nccs3)cc(Cl)nc2c1Br [Cpd 125, 2-[(2R,3S)-2-amino-3-fluorobutyl]-3-bromo-5-chloro-N-[(1,3-thiazol-2-yl)methyl]thieno[3,2-b]pyridin-7-amine]",≤ 0.05,
"Cc1c([C@@H](C)[C@H](C)N)sc2c(NCc3ccco3)cc(Cl)nc12 [Cpd 151, 2-[(2S,3S)-3-aminobutan-2-yl]-5-chloro-N-[(furan-2-yl)methyl]-3-methylthieno[3,2-b]pyridin-7-amine]",,inactive
"N#CC[C@H](N)Cc1sc2c(NCc3cccs3)cc(Cl)nc2c1Cl [Cpd 106, (3S)-3-amino-4-(3,5-dichloro-7-{[(thiophen-2-yl)methyl]amino}thieno[3,2-b]pyridin-2-yl)butanenitrile]",0.05 to 0.5,
"Cc1c(C[C@H](C)N)sc2c(NCc3cccs3)cc(C#N)nc12 [Cpd 54, 2-[(2S)-2-aminopropyl]-3-methyl-7-{[(thiophen-2-yl)methyl]amino}thieno[3,2-b]pyridine-5-carbonitrile]",0.05 to 0.5,
"Cc1c(C[C@H](C)N)sc2c(NCc3ccccc3F)cc(Cl)nc12 [Cpd 29, 2-[(2S)-2-aminopropyl]-5-chloro-N-[(2-fluorophenyl)methyl]-3-methylthieno[3,2-b]pyridin-7-amine]",≤ 0.05,
"C[C@H](N)Cc1sc2c(NCc3cccs3)cc(Cl)nc2c1Cl [Cpd 52, 2-[(2S)-2-aminopropyl]-3,5-dichloro-N-[(thiophen-2-yl)methyl]thieno[3,2-b]pyridin-7-amine]",≤ 0.05,
"CN[C@@H](C)Cc1sc2c(NCc3ccco3)cc(Cl)nc2c1C [Cpd 42, 5-chloro-N-[(furan-2-yl)methyl]-3-methyl-2-[(2S)-2-(methylamino)propyl]thieno[3,2-b]pyridin-7-amine]",0.5 to 1,
"N[C@@H](CF)Cc1sc2c(NCc3ccco3)cc(Cl)nc2c1Cl [Cpd 94, 2-[(2R)-2-amino-3-fluoropropyl]-3,5-dichloro-N-[(furan-2-yl)methyl]thieno[3,2-b]pyridin-7-amine]",≤ 0.05,
"CSC[C@H](N)Cc1sc2c(NCc3ccco3)cc(Cl)nc2c1Cl [Cpd 114, 2-[(2R)-2-amino-3-(methylsulfanyl)propyl]-3,5-dichloro-N-[(furan-2-yl)methyl]thieno[3,2-b]pyridin-7-amine]",≤ 0.05,
"Cc1c(C[C@@H](N)CCF)sc2c(NCc3ccco3)cc(Cl)nc12 [Cpd 95, 2-[(2S)-2-amino-4-fluorobutyl]-5-chloro-N-[(furan-2-yl)methyl]-3-methylthieno[3,2-b]pyridin-7-amine]",≤ 0.05,
"N[C@@H](CO)Cc1sc2c(NCc3ccco3)cc(Cl)nc2c1Cl [Cpd 39, (2R)-2-amino-3-(3,5-dichloro-7-{[(furan-2-yl)methyl]amino}thieno[3,2-b]pyridin-2-yl)propan-1-ol]",0.05 to 0.5,

SMILES,EC (2-fold increase) [µM],EC2X
"C[C@H](N)Cc1cc2nc(Cl)cc(NCc3ccco3)c2s1 [Cpd 16, 2-[(2S)-2-aminopropyl]-5-chloro-N-[(furan-2-yl)methyl]thieno[3,2-b]pyridin-7-amine]",0.05 to 0.5,
"Cc1c(C[C@H](C)N)sc2c(NCc3ccco3)cc(Cl)nc12 [Cpd 18, 2-[(2S)-2-aminopropyl]-5-chloro-N-[(furan-2-yl)methyl]-3-methylthieno[3,2-b]pyridin-7-amine]",≤ 0.05,
"Cc1c(C[C@H](C)N)sc2c(NCc3nccs3)cc(Cl)nc12 [Cpd 57, 2-[(2S)-2-aminopropyl]-5-chloro-3-methyl-N-[(1,3-thiazol-2-yl)methyl]thieno[3,2-b]pyridin-7-amine]",≤ 0.05,
"C[C@H](N)Cc1sc2c(NCc3cccs3)cc(Cl)nc2c1Br [Cpd 53, 2-[(2S)-2-aminopropyl]-3-bromo-5-chloro-N-[(thiophen-2-yl)methyl]thieno[3,2-b]pyridin-7-amine]",≤ 0.05,
"Cc1c(C[C@@H](N)CF)sc2c(NCc3cccs3)cc(Cl)nc12 [Cpd 91, 2-[(2R)-2-amino-3-fluoropropyl]-5-chloro-3-methyl-N-[(thiophen-2-yl)methyl]thieno[3,2-b]pyridin-7-amine]",≤ 0.05,
"C[C@H](N)Cc1sc2c(NCc3ccco3)cc(Cl)nc2c1C#N [Cpd 109, 2-[(2S)-2-aminopropyl]-5-chloro-7-{[(furan-2-yl)methyl]amino}thieno[3,2-b]pyridine-3-carbonitrile]",≤ 0.05,
"Cc1c(C[C@@H](N)C(=O)Nc2cnccn2)sc2c(NCc3ccco3)cc(Cl)nc12 [Cpd 135, 3-(5-chloro-7-{[(furan-2-yl)methyl]amino}-3-methylthieno[3,2-b]pyridin-2-yl)-N-pyrazin-2-yl-D-alaninamide]",0.05 to 0.5,
"C[C@@H](O)[C@H](N)Cc1sc2c(NCc3ccco3)cc(Cl)nc2c1Br [Cpd 165, (2R,3R)-3-amino-4-(3-bromo-5-chloro-7-{[(furan-2-yl)methyl]amino}thieno[3,2-b]pyridin-2-yl)butan-2-ol]",≤ 0.05,
"Cc1c(C[C@@H](N)C(=O)Nc2ccncc2)sc2c(NCc3ccco3)cc(Cl)nc12 [Cpd 140, 3-(5-chloro-7-{[(furan-2-yl)methyl]amino}-3-methylthieno[3,2-b]pyridin-2-yl)-N-pyridin-4-yl-D-alaninamide]",0.05 to 0.5,
"CSC[C@H](N)Cc1sc2c(NCc3ccco3)cc(Cl)nc2c1Br [Cpd 118, 2-[(2R)-2-amino-3-(methylsulfanyl)propyl]-3-bromo-5-chloro-N-[(furan-2-yl)methyl]thieno[3,2-b]pyridin-7-amine]",≤ 0.05,
"Cc1c(C[C@H](C)N)sc2c(NCc3ccco3)ccnc12 [Cpd 34, 2-[(2S)-2-aminopropyl]-N-[(furan-2-yl)methyl]-3-methylthieno[3,2-b]pyridin-7-amine]",0.05 to 0.5,
"C[C@H](N)C(F)c1sc2c(NCc3ccco3)cc(Cl)nc2c1Br (stereo partly drawn) [Cpd 154, 2-[(2S)-2-amino-1-fluoropropyl]-3-bromo-5-chloro-N-[(furan-2-yl)methyl]thieno[3,2-b]pyridin-7-amine]",≤ 0.05,
"N[C@H](Cc1sc2c(NCc3ccco3)cc(Cl)nc2c1Cl)C(=O)Nc1ccccc1F [Cpd 120, 3-(3,5-dichloro-7-{[(furan-2-yl)methyl]amino}thieno[3,2-b]pyridin-2-yl)-N-(2-fluorophenyl)-D-alaninamide]",0.05 to 0.5,
"C#C[C@H](N)Cc1sc2c(NCc3ccco3)cc(Cl)nc2c1Cl [Cpd 166, 2-[(2R)-2-aminobut-3-yn-1-yl]-3,5-dichloro-N-[(furan-2-yl)methyl]thieno[3,2-b]pyridin-7-amine]",0.05 to 0.5,
"N[C@@H](CF)Cc1sc2c(NCc3cccs3)cc(Cl)nc2c1Br [Cpd 76, 2-[(2R)-2-amino-3-fluoropropyl]-3-bromo-5-chloro-N-[(thiophen-2-yl)methyl]thieno[3,2-b]pyridin-7-amine]",≤ 0.05,
